Read-outs that look alike come from different tables or passages of the source.
How the values were obtained:
NAMPT = NAMPT (Homo sapiens, UniProt P43490); assay: NAMPT activity assay by fluorescence of NMN derivative (HTS system), IC50 determination; format: biochemical; parameters: His-tag; made in house; host or cells: E. coli BL21-CodonPlus (DE3)-RIL; conditions: recombinant human NAMPT, mean ± s.e.; read-out: NAMPT IC50
HepG2 cells = assay: Sulforhodamine B protein staining (SRB) assay in HepG2; format: cell-based, human; conditions: Homo sapiens
Description: (§1) Sulfor hod am ine B p rotei n st ai ning (SRB) assay
(§2) Cell pr oliferat ion was eva lua ted by sul for hod amine B pr ot ein st aini ng (SRB) assa y10-12.
(§3) Briefly, cel ls were se ede d int o 96-well pl ates, cul tur ed overni ght , and trea ted with correspond ing com poun ds for 72 h. Cells were the n fixe d with 10% trichl or oa cetic aci d and st ained with sul for hoda mine B (Sigm a). Sul for hoda mine B in the cells was di sso lved in 10 mmol/L Tris-HCl and was measured at 515 nm usi ng a multiw ell spect ropho tometer (VERSA max, Mol ecul ar Devi ces, Sunnyva le, CA). The inhi bi tion rat e on cell pr olif eratio n was cal culated for each well as (A515contr ol cells-A 515tr eated cells)/A515contr ol cells×100 % (A515:
(§4) OD va lue at 515 nm ). The averag e IC50 va lue s were de termine d by Logit method from at leas t t hr eei nde pe nde nt test s.

A549 cells = assay: SRB assay in A549; format: cell-based, human; conditions: Homo sapiens; A549, SRB, 10-fold concentration gradient; read-out: anti-proliferation IC50, initial screen
Description: as §1, §2, §3, §4

HCT116 cells = assay: SRB assay in HCT116; format: cell-based; conditions: Homo sapiens, HCT-116; HCT116, SRB, 10-fold concentration gradient; read-out: anti-proliferation IC50, initial screen
Description: as §1, §2, §3, §4

[1] = HepG2, 72 h, HepG2, second test, 2-fold concentration gradient, 72 hours, read-out: SRB assay in HepG2: IC50
[2] = HepG2, HepG2, SRB, 10-fold concentration gradient, read-out: anti-proliferation IC50, initial screen

NAMPT, sequence (P43490 whole entry): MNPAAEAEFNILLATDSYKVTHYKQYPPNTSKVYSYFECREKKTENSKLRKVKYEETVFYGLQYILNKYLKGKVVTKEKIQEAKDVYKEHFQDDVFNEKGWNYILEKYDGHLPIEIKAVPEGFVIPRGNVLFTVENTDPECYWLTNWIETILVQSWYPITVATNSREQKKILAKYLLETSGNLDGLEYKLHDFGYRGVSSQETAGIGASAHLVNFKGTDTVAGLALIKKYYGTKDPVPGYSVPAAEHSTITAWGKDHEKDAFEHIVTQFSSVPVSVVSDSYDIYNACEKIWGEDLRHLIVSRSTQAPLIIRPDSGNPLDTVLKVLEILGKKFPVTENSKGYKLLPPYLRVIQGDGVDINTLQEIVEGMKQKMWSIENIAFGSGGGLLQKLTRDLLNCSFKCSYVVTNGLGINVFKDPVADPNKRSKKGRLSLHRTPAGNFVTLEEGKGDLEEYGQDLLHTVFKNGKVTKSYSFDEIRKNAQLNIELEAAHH

In the case of `Cc1ccccc1CN1CCN(S(=O)(=O)c2ccc(NC(=S)NCc3cccnc3)cc2)CC1` [MS27], the IC50 (NAMPT) is reported as 12.4 ± 0.9 nM.
`Cc1cccc(CN2CCN(S(=O)(=O)c3ccc(NC(=S)NCc4cccnc4)cc3)CC2)c1` [MS28] was tested, and the IC50 (HepG2 cells; [1]) was > 10000 nM, the IC50 (HepG2 cells; [2]) was < 5000 nM and the IC50 (A549 cells) was < 5000 nM. The IC50 (HCT116 cells) was < 5000 nM and the IC50 (NAMPT) was 16.8 ± 1.5 nM.
With `O=S(=O)(c1ccc(NC(=S)NCc2cccnc2)cc1)N1CCN(Cc2cccc(Cl)c2)CC1` [MS29] the IC50 (NAMPT) was 12.6 ± 1.7 nM.
For `O=S(=O)(c1ccc(NC(=S)NCc2cccnc2)cc1)N1CCN(Cc2ccccc2Cl)CC1` [MS30], the IC50 (NAMPT) was 15.7 ± 2.5 nM.
For `O=S(=O)(c1ccc(NC(=S)NCc2cccnc2)cc1)N1CCN(Cc2ccc(Cl)cc2)CC1` [MS31], the IC50 (HepG2 cells; [1]) was 5810 ± 710 nM, the IC50 (HepG2 cells; [2]) was < 5000 nM and the IC50 (A549 cells) was < 5000 nM. For the same compound, the IC50 (HCT116 cells) was < 5000 nM and the IC50 (NAMPT) was 13.7 ± 1.6 nM.
For `O=S(=O)(c1ccc(NC(=S)NCc2cccnc2)cc1)N1CCN(Cc2ccc(Br)cc2)CC1` [MS32], the IC50 (HepG2 cells; [1]) was 4860 ± 150 nM, the IC50 (HepG2 cells; [2]) was < 5000 nM and the IC50 (A549 cells) was < 5000 nM. The IC50 (HCT116 cells) was < 5000 nM and the IC50 (NAMPT) was 24.2 ± 1.6 nM.
In the case of `O=S(=O)(c1ccc(NC(=S)NCc2cccnc2)cc1)N1CCN(Cc2ccc3ccccc3c2)CC1` [MS33], the IC50 (HepG2 cells; [1]) is reported as 8940 ± 450 nM, the IC50 (HepG2 cells; [2]) is reported as < 5000 nM and the IC50 (A549 cells) is reported as < 5000 nM. For the same compound, the IC50 (HCT116 cells) was < 5000 nM and the IC50 (NAMPT) was 29.5 ± 0.8 nM.
`O=S(=O)(c1ccc(NC(=S)NCc2cccnc2)cc1)N1CCN(Cc2ccc(OC(F)(F)F)cc2)CC1` [MS35] was tested, and the IC50 (HepG2 cells; [1]) was 4830 ± 130 nM, the IC50 (HepG2 cells; [2]) was < 5000 nM and the IC50 (A549 cells) was < 5000 nM. The IC50 (HCT116 cells) was < 5000 nM and the IC50 (NAMPT) was 36.9 ± 4.6 nM.
With `CCCCc1ccc(CN2CCN(S(=O)(=O)c3ccc(NC(=S)NCc4cccnc4)cc3)CC2)cc1` [MS36] the IC50 (NAMPT) was 79.8 ± 6.1 nM.
`O=[N+]([O-])c1ccc(CN2CCN(S(=O)(=O)c3ccc(NC(=S)NCc4cccnc4)cc3)CC2)cc1` [MS37] was tested, and the IC50 (HepG2 cells; [1]) was 4650 ± 1030 nM, the IC50 (HepG2 cells; [2]) was < 5000 nM and the IC50 (A549 cells) was < 5000 nM. The IC50 (HCT116 cells) was < 5000 nM and the IC50 (NAMPT) was 19.7 ± 2.1 nM.
With `Nc1ccc(CN2CCN(S(=O)(=O)c3ccc(NC(=S)NCc4cccnc4)cc3)CC2)cc1` [MS38] the IC50 (NAMPT) was 19.9 ± 2.8 nM.
Work on `O=S(=O)(c1ccc(NC(=S)NCc2cccnc2)cc1)N1CCN(Cc2nc3ccccc3[nH]2)CC1` [MS39] yielded an IC50 (NAMPT) of 14 ± 0.3 nM.
`O=S(=O)(c1ccc(NC(=S)NCc2cccnc2)cc1)N1CCN(Cc2ccoc2)CC1` [MS40] gave an IC50 (NAMPT) of 48.7 ± 4.5 nM.
In the case of `O=S(=O)(c1ccc(NC(=S)NCc2cccnc2)cc1)N1CCN(Cc2ccsc2)CC1` [MS41], the IC50 (NAMPT) is reported as 22.5 ± 0.8 nM.
`O=S(=O)(c1ccc(NC(=S)NCc2cccnc2)cc1)N1CCN(Cc2ccco2)CC1` [MS42] gave an IC50 (NAMPT) of 19.1 ± 2 nM.
Work on `O=S(=O)(c1ccc(NC(=S)NCc2cccnc2)cc1)N1CCN(Cc2cccs2)CC1` [MS43] yielded an IC50 (NAMPT) of 38.8 ± 1.8 nM.
`O=S(=O)(c1ccc(NC(=S)NCc2cccnc2)cc1)N1CCN(Cc2ccncc2)CC1` [MS44] was tested, and the IC50 (NAMPT) was 13.7 ± 0.4 nM.
With `O=S(=O)(c1ccc(NC(=S)NCc2cccnc2)cc1)N1CCN(Cc2cccnc2)CC1` [MS45] the IC50 (NAMPT) was 9.8 ± 0.9 nM.
In the case of `Cc1ccc(N2CCN(S(=O)(=O)c3ccc(NC(=S)NCc4cccnc4)cc3)CC2)cc1` [MS46], the IC50 (NAMPT) is reported as 15.4 ± 1.6 nM.
For `COc1ccc(CCNC(=O)c2cc3ccccc3s2)cc1OC` [compound 2161], the IC50 (NAMPT) was 149 ± 21 nM.
`O=C1C[C@H](c2ccc(O)cc2)Oc2c1c(O)cc(O)c2[C@@H]1C(=O)c2c(O)cc(O)cc2O[C@H]1c1ccc(O)cc1` [compound 3909] was tested, and the IC50 (NAMPT) was 504 ± 124 nM.
`O=C(NCc1ccc(S(=O)(=O)NCc2cc(F)cc3c2OCOC3)s1)c1ccc(Cl)cc1` [compound 4162] gave an IC50 (NAMPT) of 777 ± 84 nM.
Work on `COc1cccc(/C=C2/N=C(c3ccc(NC(=O)c4cccs4)cc3)OC2=O)c1OC` [compound 6443] yielded an IC50 (NAMPT) of 352 ± 45 nM.
`Cc1ccc2oc(=O)n(CCC(N)=NOC(=O)c3ccccc3)c2c1` [compound 7391] was tested, and the IC50 (NAMPT) was 855 ± 170 nM.
